These results are taken from patent publication US8591902B2, “Antibody binding to lysophosphatidylglucoside, and composition comprising the same” (Riken, priority 2010, dated 2013).

Assay [1] deals with growth cone of an NT-3-dependent neuron (TrkC neuron). The experiment in a line: In vitro growth cone turning assay, NT-3-supplemented medium. The following applies: lysophospholipid 10 μM in pipette, 45 minutes. It is filed as cell-based, chicken. The source says:
The method described in T. Tojima et al., Nat Neurosci 10, 58-66 (January, 2007) was somewhat modified and employed to perform a primary culture of isolated DRG sensory nerves. Specifically, a chicken embryo at HH St. 29 was separated from the eggshell and decapitated. The body was transferred to ice-cooled PBS. Organs were removed from the obtained body with forceps, and the spine was exposed by ventral laminectomy. DRGs were isolated from the thoracic or lumbosacral spinal cord, broken into pieces fine watchmaker's forceps, and transferred into an L15 medium on ice. The DRG obtained by the dissection was treated with trypsin at 37° C. for 20 minutes, followed by centrifugation at 100 g for 1 minute. A minimum amount of an L15 medium was added to the pellets thus obtained, and the cells were manually suspended (repeated manual trituration). The cell suspension was again centrifuged at 100 g for 1 minute, and the supernatant was removed. Subsequently, the pellets were resuspended in a Leibovitz's L15 medium supplemented with N-2 (manufactured by Invitrogen Corp.), 750 μg/ml of BSA (manufactured by GIBCO), and 25 ng/ml of NGF or 50 ng/ml of NT-3 (manufactured by Sigma-Aldrich Corporation). The cells were seeded on glass dishes precoated with mouse-derived laminin (manufactured by Invitrogen Corp.) at […] such that the cell count would be 10,000 per dish. […]

In assay [2] the test system is growth cone of an NGF-dependent neuron (TrkA neuron). The assay is described as follows: In vitro growth cone turning assay, NGF-supplemented medium. The note with it: for change in axon extension direction in response to concentration gradient: NGF-supplemented medium, TrkA neuron, lysophospholipid 10 μM in pipette, 45 minutes. It counts as cell-based, chicken. The source says: The method described in T. Tojima et al., Nat Neurosci 10, 58-66 (January, 2007) was somewhat modified and employed to perform a primary culture of isolated DRG sensory nerves. Specifically, a chicken embryo at HH St. 29 was separated from the eggshell and decapitated. The body was transferred to ice-cooled PBS. Organs were removed from the obtained body with forceps, and the spine was exposed by ventral laminectomy. DRGs were isolated from the thoracic or lumbosacral spinal cord, broken into pieces fine watchmaker's forceps, and transferred into an L15 medium on ice. The DRG obtained by the dissection was treated with trypsin at 37° C. for 20 minutes, followed by centrifugation at 100 g for 1 minute. A minimum amount of an L15 medium was added to the pellets thus obtained, and the cells were manually suspended (repeated manual trituration). The cell suspension was again centrifuged at 100 g for 1 minute, and the supernatant was removed. Subsequently, the pellets were resuspended in a Leibovitz's L15 medium supplemented with N-2 (manufactured by Invitrogen Corp.), 750 μg/ml of BSA (manufactured by GIBCO), and 25 ng/ml of NGF or 50 ng/ml of NT-3 (manufactured by Sigma-Aldrich Corporation). The cells were seeded on glass dishes precoated with mouse-derived laminin (manufactured by Invitrogen Corp.) at […] such that the cell count would be 10,000 per dish. The dishes were placed in a culturing environment of 5% CO2 at 37° C. for approximately 2 hours before used in a growth cone turning assay.
The in vitro growth cone turning assay was conducted according to the methods described in M. Lohof, M. Quillan, Y. Dan, M. M. Poo, J Neurosci 12, 1253-61 (April, 1992), J. Q. Zheng, M. M. Poo, J. A. Connor, Perspect Dev Neurobiol 4, 205-13 (1996), and Y. Xiang et al., Nat Neurosci 5, 843-8 (September, 2002), which were somewhat modified. Specifically, lysophosphatidylcholine (manufactured by Sigma-Aldrich Corporation) or Lyso-PtdGlc prepared by a method described later was diluted with a vehicle (1% (v/v) methanol/PBS) such that the concentration would be 10 μM. […]

Turning to `CCCCCCCCCCCCCCCCCC(=O)OCC(O)COP(=O)(O)O[C@@H]1OC(CO)[C@@H](O)C(O)C1O` (some centres unmarked) [Lyso-PtdGlc, lysophosphatidylglucoside], the “change in axon extension direction in response to concentration gradient” value is on record as “no significant change” in assay [1] and “changed its extension direction” in assay [2].

As to Lysophosphatidic acid [LPA], in assay [2] (in the presence of 50 μg/ml anti-Lyso-PtdGlc antibody), the “chemorepellent effect on growth cone turning” value is “strong chemorepellent effect”.

Turning to Lysophosphatidylcholine [LPC], the “change in axon extension direction in response to concentration gradient” value in assay [1] and in assay [2] was “no significant influence” each time.
